Patent publication US12630600B2 (MEDIMMUNE LIMITED, priority 2022, dated 2026)
Starred links: 1 amine or outer side, 2 acyl side, 3 side chain; linkers in the order of their positions; H or OH if unused. Non-standard residues stand in square brackets, D forms with d. Residues, ends and D or L forms follow the SMILES beside them. Groups on a side chain read outwards from the residue. *: point of attachment. C20 diacid = O=C(O)CCCCCCCCCCCCCCCCCCC(=O)*; C18 diacid = O=C(O)CCCCCCCCCCCCCCCCC(=O)*; γGlu = O=C(O)[C@H](CCC(=O)[*:2])N[*:1]; αMeF = C[C@](N)(Cc1ccccc1)C(=O)O; PEG2 = NCCOCCOCCC(=O)O; AEEA = NCCOCCOCC(=O)O; Aib = CC(C)(N)C(=O)O

Target: T1, human GLP-1 receptor (hGLP-1R) (Homo sapiens, UniProt P43220)
T1 construct: expressed in transfected cells; host or cells: CHO
Assay: cAMP production (HTRF) in CHO cells expressing human GLP-1 receptor
Format: cell-based
Settings: % GLP-1R activity relative to GLP-1 / % GlucR activity relative to glucagon
Protocol: Cells were re-suspended in assay buffer at a batch-dependent optimized concentration (typically hGLP-1R cells at 1×10^5 cells/mL, hGCGR cells at 2×10^5 cells/mL).
Cells were added to the assay plate using a multidrop dispenser and incubated at room temperature for 30 minutes before measuring the cAMP level using a cAMP dynamic 2 homogeneous time resolved Fluorescence (HTRF) kit (Cisbio Bioassays #62AM4PEJ) following the two-step protocol as per manufacturer's recommendations. In brief, anti-cAMP cryptate (donor fluorophore) and cAMP-d2 (acceptor fluorophore) were made up separately by diluting each 1 in 20 in conjugate and lysis buffer provided in the kit. Anti-cAMP cryptate was added to all wells of the assay plate, followed by cAMP-d2 added to all wells except non-specific binding (NSB) wells (to which conjugate and lysis buffer was added).
Data was transformed to % Delta F as described in the manufacturer's guidelines and analyzed by 4-parameter logistic fit to determine EC50 values.

T1 sequence (P43220 24-463): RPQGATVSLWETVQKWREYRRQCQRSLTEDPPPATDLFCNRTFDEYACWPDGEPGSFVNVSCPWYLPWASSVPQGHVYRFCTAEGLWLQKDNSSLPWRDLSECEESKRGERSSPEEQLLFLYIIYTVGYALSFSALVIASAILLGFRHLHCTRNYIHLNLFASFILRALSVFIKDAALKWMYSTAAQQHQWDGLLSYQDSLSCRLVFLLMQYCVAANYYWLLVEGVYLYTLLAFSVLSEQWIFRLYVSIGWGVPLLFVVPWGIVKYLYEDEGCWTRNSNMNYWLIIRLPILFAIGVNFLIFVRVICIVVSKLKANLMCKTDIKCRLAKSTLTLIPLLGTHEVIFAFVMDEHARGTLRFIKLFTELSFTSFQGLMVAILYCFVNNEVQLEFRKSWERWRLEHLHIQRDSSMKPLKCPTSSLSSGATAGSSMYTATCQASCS

Molecule	% Relative Potency Ratio (Table 8)	further results
CC(C)C[C@H](NC(=O)[C@H](CCC(=O)O)NC(=O)[C@H](CC(C)C)NC(=O)[C@](C)(Cc1ccccc1)NC(=O)[C@H](CCCCN)NC(=O)[C@H](CO)NC(=O)[C@@H](NC(=O)[C@H](CC(=O)O)NC(=O)[C@H](CO)NC(=O)[C@@H](NC(=O)[C@H](Cc1ccccc1)NC(=O)[C@@H](NC(=O)CNC(=O)[C@H](CCC(N)=O)NC(=O)C(C)(C)NC(=O)[C@@H](N)Cc1c[nH]cn1)[C@@H](C)O)[C@@H](C)O)C(C)C)C(=O)N[C@@H](CCCCNC(=O)COCCOCCNC(=O)COCCOCCNC(=O)CC[C@H](NC(=O)CCCCCCCCCCCCCCCCC(=O)O)C(=O)O)C(=O)N[C@@H](CCCNC(=N)N)C(=O)N[C@@H](C)C(=O)N[C@@H](CCC(N)=O)C(=O)N[C@@H](CC(=O)O)C(=O)N[C@@H](Cc1ccccc1)C(=O)N[C@H](C(=O)N[C@@H](CCCNC(=N)N)C(=O)N[C@@H](Cc1c[nH]c2ccccc12)C(=O)N[C@@H](CC(C)C)C(=O)N[C@@H](CC(C)C)C(=O)NC(C)(C)C(=O)N[C@H](C(=O)N[C@@H](CCC(=O)O)C(=O)O)[C@@H](C)O)C(C)C [Peptide 169] (H-H[Aib]QGTFTSDVSK[αMeF]LELK([AEEA-AEEA-γGlu-C18 diacid])RAQDFVRWLL[Aib]TE-OH; N-terminus assumed)	–	% Relative Potency Ratio (Table 6): 13.2
CC[C@H](C)[C@H](NC(=O)[C@H](Cc1c[nH]c2ccccc12)NC(=O)[C@H](CCCCNC(=O)COCCOCCNC(=O)COCCOCCNC(=O)CC[C@H](NC(=O)CC[C@H](NC(=O)CCCCCCCCCCCCCCCCCCC(=O)O)C(=O)O)C(=O)O)NC(=O)[C@@H](NC(=O)[C@](C)(Cc1ccccc1)NC(=O)[C@H](CC(=O)O)NC(=O)[C@H](CCC(N)=O)NC(=O)[C@H](C)NC(=O)[C@H](C)NC(=O)[C@H](CCCNC(=N)N)NC(=O)[C@H](CO)NC(=O)[C@H](CC(=O)O)NC(=O)[C@H](CC(C)C)NC(=O)[C@](C)(Cc1ccccc1)NC(=O)[C@H](CCCCN)NC(=O)[C@H](CO)NC(=O)[C@@H](NC(=O)[C@H](CC(=O)O)NC(=O)[C@H](CO)NC(=O)[C@@H](NC(=O)[C@](C)(Cc1ccccc1)NC(=O)[C@H](CO)NC(=O)CNC(=O)[C@H](Cc1c[nH]cn1)NC(=O)C(C)(C)NC(=O)[C@@H](N)Cc1c[nH]cn1)[C@@H](C)O)C(C)C)C(C)C)C(=O)N[C@@H](C)C(=O)N[C@@H](CC(N)=O)C(=O)N[C@H](C(N)=O)[C@@H](C)O [Peptide 374] (H-H[Aib]HGS[αMeF]TSDVSK[αMeF]LDSRAAQD[αMeF]VK([AEEA-AEEA-γGlu-γGlu-C20 diacid])WIANT-NH2; N-terminus assumed)	1.2	–
CC[C@H](C)[C@H](NC(=O)[C@H](Cc1c[nH]c2ccccc12)NC(=O)[C@H](CCCCNC(=O)CC[C@H](NC(=O)CCCCCCCCCCCCCCCCCCC(=O)O)C(=O)O)NC(=O)[C@@H](NC(=O)[C@H](Cc1ccccc1)NC(=O)[C@H](CC(=O)O)NC(=O)[C@H](CCC(N)=O)NC(=O)[C@H](C)NC(=O)[C@H](C)NC(=O)[C@H](CCC(N)=O)NC(=O)[C@H](CO)NC(=O)[C@H](CC(=O)O)NC(=O)[C@H](CC(C)C)NC(=O)[C@](C)(Cc1ccccc1)NC(=O)[C@H](CCCCN)NC(=O)[C@H](CO)NC(=O)[C@@H](NC(=O)[C@H](CC(=O)O)NC(=O)[C@H](CO)NC(=O)[C@@H](NC(=O)[C@](C)(Cc1ccccc1)NC(=O)[C@H](CO)NC(=O)CNC(=O)[C@H](Cc1c[nH]cn1)NC(=O)C(C)(C)NC(=O)[C@@H](N)Cc1c[nH]cn1)[C@@H](C)O)C(C)C)C(C)C)C(=O)N[C@@H](C)C(=O)N[C@@H](CC(N)=O)C(=O)N[C@H](C(N)=O)[C@@H](C)O [Peptide 354]	1.6	–
HSQGS(αMePhe)TSDVSKK((PEG)2-(PEG)2-γE-VE-Palmitoyl)13LDS(B-dimethylArg)AAQD(aMePhe)VE(Aib)LANT-amide [Peptide 400]	–	% Relative Potency Ratio (Table 10): 16.7
CC(C)C[C@H](NC(=O)[C@H](Cc1c[nH]c2ccccc12)NC(=O)[C@H](CCC(N)=O)NC(=O)[C@@H](NC(=O)[C@H](Cc1ccccc1)NC(=O)[C@H](CC(=O)O)NC(=O)[C@H](CCCNC(=N)N)NC(=O)[C@H](C)NC(=O)[C@H](CCCNC(=N)N)NC(=O)[C@H](CCCCNC(=O)COCCOCCNC(=O)COCCOCCNC(=O)CC[C@H](NC(=O)CCCCCCCCCCCCCCCCC(=O)O)C(=O)O)NC(=O)[C@@H](NC(=O)[C@H](CCC(=O)O)NC(=O)[C@H](CC(C)C)NC(=O)[C@](C)(Cc1ccccc1)NC(=O)[C@H](CCCCN)NC(=O)[C@H](CO)NC(=O)[C@@H](NC(=O)[C@H](CC(=O)O)NC(=O)[C@H](CO)NC(=O)[C@@H](NC(=O)[C@H](Cc1ccccc1)NC(=O)[C@@H](NC(=O)CNC(=O)[C@H](CCC(N)=O)NC(=O)C(C)(C)NC(=O)[C@@H](N)Cc1c[nH]cn1)[C@@H](C)O)[C@@H](C)O)C(C)C)[C@@H](C)O)C(C)C)C(=O)N[C@@H](CC(C)C)C(=O)N[C@@H](CCC(=O)O)C(=O)NC(C)(C)C(=O)NCC(=O)O [Peptide 445] (H-H[Aib]QGTFTSDVSK[αMeF]LETK([AEEA-AEEA-γGlu-C18 diacid])RARDFVQWLLE[Aib]G-OH; N-terminus assumed)	–	% Relative Potency Ratio (Table 6): 41.0
CC[C@H](C)[C@H](NC(=O)[C@H](Cc1c[nH]c2ccccc12)NC(=O)[C@H](CCCCNC(=O)CCOCCOCCNC(=O)CCOCCOCCNC(=O)CC[C@H](NC(=O)CC[C@H](NC(=O)CCCCCCCCCCCCCCCCCCC(=O)O)C(=O)O)C(=O)O)NC(=O)[C@@H](NC(=O)[C@H](Cc1ccccc1)NC(=O)[C@H](CC(=O)O)NC(=O)[C@H](CCC(N)=O)NC(=O)[C@H](C)NC(=O)[C@H](C)NC(=O)[C@H](CCC(N)=O)NC(=O)[C@H](CO)NC(=O)[C@H](CC(=O)O)NC(=O)[C@H](CC(C)C)NC(=O)[C@](C)(Cc1ccccc1)NC(=O)[C@H](CCCCN)NC(=O)[C@H](CO)NC(=O)[C@@H](NC(=O)[C@H](CC(=O)O)NC(=O)[C@H](CO)NC(=O)[C@@H](NC(=O)[C@](C)(Cc1ccccc1)NC(=O)[C@H](CO)NC(=O)CNC(=O)[C@H](Cc1c[nH]cn1)NC(=O)C(C)(C)NC(=O)[C@@H](N)Cc1c[nH]cn1)[C@@H](C)O)C(C)C)C(C)C)C(=O)N[C@@H](C)C(=O)N[C@@H](CC(N)=O)C(=O)N[C@H](C(N)=O)[C@@H](C)O [Peptide 355] (H-H[Aib]HGS[αMeF]TSDVSK[αMeF]LDSQAAQDFVK([PEG2-PEG2-γGlu-γGlu-C20 diacid])WIANT-NH2; N-terminus assumed)	2.2	–
HSQGS(αMePhe)TSDK((PEG)2-(PEG)2-γE-γE-Palmitoyl)10SK(Dip)LDS(ß-dimethylArg)AAQD(αMePhe)VE(Aib)LANT-amide [Peptide 394]	–	% Relative Potency Ratio (Table 9): 7.3
CC[C@H](C)[C@H](NC(=O)[C@H](Cc1c[nH]c2ccccc12)NC(=O)[C@H](CCCCNC(=O)COCCOCCNC(=O)COCCOCCNC(=O)CC[C@H](NC(=O)CCCCCCCCCCCCCCCCCCC(=O)O)C(=O)O)NC(=O)[C@@H](NC(=O)[C@H](Cc1ccccc1)NC(=O)[C@H](CC(=O)O)NC(=O)[C@H](CCC(N)=O)NC(=O)[C@H](C)NC(=O)[C@H](C)NC(=O)[C@H](CCC(N)=O)NC(=O)[C@H](CO)NC(=O)[C@H](CC(=O)O)NC(=O)[C@H](CC(C)C)NC(=O)[C@](C)(Cc1ccccc1)NC(=O)[C@H](CCCCN)NC(=O)[C@H](CO)NC(=O)[C@@H](NC(=O)[C@H](CC(=O)O)NC(=O)[C@H](CO)NC(=O)[C@@H](NC(=O)[C@](C)(Cc1ccccc1)NC(=O)[C@H](CO)NC(=O)CNC(=O)[C@H](Cc1c[nH]cn1)NC(=O)C(C)(C)NC(=O)[C@@H](N)Cc1c[nH]cn1)[C@@H](C)O)C(C)C)C(C)C)C(=O)N[C@@H](C)C(=O)N[C@@H](CC(N)=O)C(=O)N[C@H](C(N)=O)[C@@H](C)O [Peptide 356] (H-H[Aib]HGS[αMeF]TSDVSK[αMeF]LDSQAAQDFVK([AEEA-AEEA-γGlu-C20 diacid])WIANT-NH2)	2.1	–
CC[C@H](C)[C@H](NC(=O)[C@H](Cc1c[nH]c2ccccc12)NC(=O)[C@H](CCCCNC(=O)COCCOCCNC(=O)COCCOCCNC(=O)CC[C@H](NC(=O)CCCCCCCCCCCCCCCCC(=O)O)C(=O)O)NC(=O)[C@@H](NC(=O)[C@](C)(Cc1ccccc1)NC(=O)[C@H](CC(=O)O)NC(=O)[C@H](CCC(N)=O)NC(=O)[C@H](C)NC(=O)[C@H](C)NC(=O)[C@H](CCC(N)=O)NC(=O)[C@H](CO)NC(=O)[C@H](CC(=O)O)NC(=O)[C@H](CC(C)C)NC(=O)[C@](C)(Cc1ccccc1)NC(=O)[C@H](CCCCN)NC(=O)[C@H](CO)NC(=O)[C@@H](NC(=O)[C@H](CC(=O)O)NC(=O)[C@H](CO)NC(=O)[C@@H](NC(=O)[C@](C)(Cc1ccccc1)NC(=O)[C@H](CO)NC(=O)CNC(=O)[C@H](Cc1c[nH]cn1)NC(=O)C(C)(C)NC(=O)[C@@H](N)Cc1c[nH]cn1)[C@@H](C)O)C(C)C)C(C)C)C(=O)N[C@@H](C)C(=O)N[C@@H](CC(N)=O)C(=O)N[C@H](C(N)=O)[C@@H](C)O [Peptide 370] (H-H[Aib]HGS[αMeF]TSDVSK[αMeF]LDSQAAQD[αMeF]VK([AEEA-AEEA-γGlu-C18 diacid])WIANT-NH2; N-terminus assumed)	1.1	–
H(Aib)HGS(αMePhe)TSDVSKK(O2OC-O2OC-γE-C18diacid)13LDSRAAQD(αMePhe)VQ(Aib)IANT-amide [Peptide 406]	–	% Relative Potency Ratio (Table 10): 31.6
